The values below come from patent US20130252935A1, “Monobactams” (PFIZER INC., priority 2010, published 2013).

Format in all cases: cell-based
Experiment [1] relates to Pseudomonas aeruginosa UC-12120. Nature of the experiment: minimum inhibitory concentration (MIC) testing according to CLSI guidelines, Pseudomonas aeruginosa. The following applies: UC-12120, wild-type, labeled as 1091-05, overnight incubation, lower of duplicate values; for MIC: Pseudomonas aeruginosa, UC12120, read-out: AB-MBT: Pseudomonas aeruginosa 1091-05: MIC (MstRcn). The procedure: (§1) In order to assess the compounds biological activity, the in vitro anti-bacterial activity of selected compounds described in the Examples 1-69 was evaluated by minimum inhibitory concentration (MIC) testing according to Clinical and Laboratory Standards Institute (CLSI, formerly NCCLS) guidelines. See: Clinical and Laboratory Standards Institute. Methods for Dilution Antimicrobial Susceptibility Tests for Bacteria that Grow Aerobically; Approved Standard-Eighth Edition. CLSI document M7-A8 [ISBN 1-56238-689-1]. Clinical and Laboratory Standards Institute, 940 West Valley Road, Suite 1400, Wayne, Pa. 19087-1898 USA, 2006; also Clinical and Laboratory Standards Institute. Performance Standards for Antimicrobial Susceptibility Testing; Twentieth Informational Supplement. CLSI document M100-S20 [ISBN1-56238-716-2]. Clinical and Laboratory Standards Institute.
(§2) The MIC determination is a standard laboratory method for evaluating the antibacterial activity of a compound. The MIC represents the lowest drug concentration that inhibits visible growth of bacteria following overnight incubation. […] Typically, the drug concentration range is broken down into 2-fold increments (e.g. 0.06 μg/mL, 0.12 μg/mL. 0.25 μg/mL, 0.50 μg/mL, 1.0 μg/mL, etc.) and the various drug concentrations are all individually incubated overnight with approximately the same number of bacteria. The MIC is then determined by visually inspecting the drug effect at each concentration, and identifying the lowest drug concentration that has inhibited bacterial growth as compared to the drug free control. Typically, bacteria continue to grow at drug concentrations lower than the MIC and don't grow at concentrations at and above the MIC.
(§3) The MIC values described in Table 1 below were derived from assays wherein each test compound was evaluated in duplicate. In cases where the duplicate values varied by 0-2-fold, the lower of the two values was reported below. Generally speaking, if the duplicate values varied by more than 2-fold, the assay was considered non-valid and was repeated until the variation between duplicate runs was ≦2-fold. In line with the CLSI guidelines referred to above, both control organisms and reference compounds were utilized in each MIC assay to provide proper quality control. MIC values generated with these control organisms and reference compounds were required to fall within a defined range for the assay to be considered valid and be included herein. Those skilled in the art will recognize that MIC values can and do vary from experiment to experiment. Generally speaking, it should be recognized that MIC values often vary +/−2-fold from experiment to experiment. While a single MIC is reported for each compound and each microorganism, the reader should not conclude that each compound was only tested once. Several of the compounds were subjected to multiple tests. The data reported in Table 1 is reflective of the compounds relative activity and different MICs may have been generated on these occasions in light with the guidelines described above.
(§4) The following bacterial strains were used in these MIC determinations:
1) Pseudomonas aeruginosa UC-12120: Wild-type, labeled as 1091-05;

Experiment [2] relates to Klebsiella pneumoniae 1000-02. Nature of the experiment: minimum inhibitory concentration (MIC) testing according to CLSI guidelines, Klebsiella pneumoniae. Particulars: ciprofloxacin-resistant, ESBL-expressing clinical isolate 1000-02, overnight incubation, lower of duplicate values; for MIC: Klebsiella pneumoniae, read-out: AB-MBT: Klebsiella pneumoniae 1000-02: MIC (MstRcnt). The procedure: as §1, §2, §3, §4
2) Klebsiella pneumoniae: Ciprofloxacin-resistant isolate, expresses extended-spectrum beta-lactamases (ESBL), clinical isolate, labeled as 1000-02;

For experiment [3], the system named is Acinetobacter baumannii/haemolyticus AB-3167. Put plainly: minimum inhibitory concentration (MIC) testing according to CLSI guidelines, Acinetobacter. The following applies: multidrug-resistant clinical isolate AB-3167, overnight incubation, lower of duplicate values; for MIC: Acinetobacter baumannii, read-out: AB-MBT: Acinetobacter baumanii AB-3167: MIC (MstRcnt). The procedure: as §1, §2, §3, §4
3) Acinetobacter baumannii/haemolyticus: Multidrug-resistant clinical isolate, labeled as AB-3167.

≈ marks a conversion by molar mass, not a printed value.

As usually defined, the MIC is the lowest concentration found to suppress growth. Consider `CC(C)(O/N=C(\C(=O)N[C@@H]1C(=O)N(S(=O)(=O)O)[C@@H]1CNC(=O)c1cc(-c2cc(=O)c(O)cn2O)on1)c1csc(N)n1)C(=O)O` [Example 16, 2-({[(1Z)-1-(2-amino-1,3-thiazol-4-yl)-2-({(2R,3S)-2-[({[5-(1,5-dihydroxy-4-oxo-1,4-dihydropyridin-2-yl)isoxazol-3-yl]carbonyl}amino)methyl]-4-oxo-1-sulfoazetidin-3-yl}amino)-2-oxoethylidene]amino}oxy)-2-methylpropanoic acid], for which the MIC worked out at 0.25 µg/mL (≈ 0.373 µM) in experiment [1], 0.5 µg/mL (≈ 0.746 µM) in experiment [2] and 1 µg/mL (≈ 1.49 µM) in experiment [3].

Turning to `CC(C)(O/N=C(\C(=O)N[C@@H]1C(=O)N(S(=O)(=O)O)[C@@H]1CNC(=O)c1csc(-c2cc(=O)c(O)c[nH]2)n1)c1csc(N)n1)C(=O)O` [Example 20, 2-({[(1Z)-1-(2-amino-1,3-thiazol-4-yl)-2-({(2R,3S)-2-[({[2-(5-hydroxy-4-oxo-1,4-dihydropyridin-2-yl)-1,3-thiazol-4-yl]carbonyl}amino)methyl]-4-oxo-1-sulfoazetidin-3-yl}amino)-2-oxoethylidene]amino}oxy)-2-methylpropanoic acid], the MIC in experiment [1] was determined as 1 µg/mL (≈ 1.49 µM); in experiment [2], 0.5 µg/mL (≈ 0.746 µM); in experiment [3] it was 1 µg/mL (≈ 1.49 µM).

Regarding `CC(C)(O/N=C(\C(=O)N[C@@H]1C(=O)N(S(=O)(=O)O)[C@@H]1Cn1cc(-c2cc(=O)c(O)c[nH]2)nn1)c1csc(N)n1)C(=O)O` [Example 2, 2-({[(1Z)-1-(2-amino-1,3-thiazol-4-yl)-2-{[(2R,3S)-2-{[4-(5-hydroxy-4-oxo-1,4-dihydropyridin-2-yl)-1H-1,2,3-triazol-1-yl]methyl}-4-oxo-1-sulfoazetidin-3-yl]amino}-2-oxoethylidene]amino}oxy)-2-methylpropanoic acid], the MIC was determined as 2 µg/mL (≈ 3.27 µM) in experiment [1], 8 µg/mL (≈ 13.1 µM) in experiment [2] and 8 µg/mL (≈ 13.1 µM) in experiment [3].

`CC(C)(O/N=C(\C(=O)N[C@@H]1C(=O)N(S(=O)(=O)O)[C@@H]1CNC(=O)c1cc(=O)c(O)c[nH]1)c1csc(N)n1)C(=O)O` [Example 10, 2-({[(1Z)-1-(2-amino-1,3-thiazol-4-yl)-2-{[(2R,3S)-2-({[(5-hydroxy-4-oxo-1,4-dihydropyridin-2-yl)carbonyl]amino}methyl)-4-oxo-1-sulfoazetidin-3-yl]amino}-2-oxoethylidene]amino}oxy)-2-methylpropanoic acid]: the figures for the MIC in experiment [1], in experiment [2] and in experiment [3] were 0.125 µg/mL (≈ 0.213 µM), 0.5 µg/mL (≈ 0.851 µM) and 0.25 µg/mL (≈ 0.425 µM), respectively.

`CC(C)(O/N=C(\C(=O)N[C@@H]1C(=O)N(S(=O)(=O)O)[C@@H]1CNC(=O)CNC(=O)NCc1cc(=O)c(O)cn1O)c1csc(N)n1)C(=O)O` [Example 53, 2-({[(1Z)-1-(2-amino-1,3-thiazol-4-yl)-2-{[(2R,3S)-2-{[(N-{[(1,5-dihydroxy-4-oxo-1,4-dihydropyridin-2-yl)methyl]carbamoyl}glycyl)amino]methyl}-4-oxo-1-sulfoazetidin-3-yl]amino}-2-oxoethylidene]amino}oxy)-2-methylpropanoic acid]: the MIC in experiment [1] came to 0.25 µg/mL (≈ 0.363 µM); in experiment [2] it was 1 µg/mL (≈ 1.45 µM); in experiment [3], 0.25 µg/mL (≈ 0.363 µM).

For `Nc1nc(/C(=N/OC2(C(=O)O)CCC2)C(=O)N[C@@H]2C(=O)N(S(=O)(=O)O)[C@@H]2CNC(=O)CCC(=O)NCc2cc(=O)c(O)cn2O)cs1` [Example 60, 1-({[(1Z)-1-(2-amino-1,3-thiazol-4-yl)-2-{[(2R,3S)-2-{[(4-{[(1,5-dihydroxy-4-oxo-1,4-dihydropyridin-2-yl)methyl]amino}-4-oxobutanoyl)amino]methyl}-4-oxo-1-sulfoazetidin-3-yl]amino}-2-oxoethylidene]amino}oxy)cyclobutanecarboxylic acid], the minimal inhibitory concentration (MIC) came out at 0.125 µg/mL (≈ 0.178 µM) in experiment [1], 0.5 µg/mL (≈ 0.714 µM) in experiment [2] and 0.25 µg/mL (≈ 0.357 µM) in experiment [3].

`Nc1nc(/C(=N/OC2(C(=O)O)CCC2)C(=O)N[C@@H]2C(=O)N(S(=O)(=O)O)[C@@H]2CNC(=O)c2cccc(S(=O)(=O)NCc3cc(=O)c(O)cn3O)c2)cs1` [Example 59]: in experiment [1], the “AB-MBT: Pseudomonas aeruginosa 1091-05: MIC (MstRcn)” value was found to be 0.250 µg/mL. The “AB-MBT: Klebsiella pneumoniae 1000-02: MIC (MstRcnt)” value in experiment [2] was found to be 0.250 µg/mL. In addition, the “AB-MBT: Acinetobacter baumanii AB-3167: MIC (MstRcnt)” value in experiment [3] is 0.250 µg/mL.

Consider `CC(C)(O/N=C(\C(=O)N[C@@H]1C(=O)N(S(=O)(=O)O)[C@@H]1CNC(=O)CCC(=O)NCc1cc(=O)c(O)cn1O)c1csc(N)n1)C(=O)O` [Example 42, 2-({[(1Z)-1-(2-amino-1,3-thiazol-4-yl)-2-{[(2R,3S)-2-{[(4-{[(1,5-dihydroxy-4-oxo-1,4-dihydropyridin-2-yl)methyl]amino}-4-oxobutanoyl)amino]methyl}-4-oxo-1-sulfoazetidin-3-yl]amino}-2-oxoethylidene]amino}oxy)-2-methylpropanoic acid], for which the minimum inhibitory concentration (MIC) in experiment [1] was 0.125 µg/mL (≈ 0.182 µM); in experiment [2], 0.5 µg/mL (≈ 0.726 µM); in experiment [3] it was 0.125 µg/mL (≈ 0.182 µM).

Turning to `CC(C)C[C@H](O/N=C(\C(=O)N[C@@H]1C(=O)N(S(=O)(=O)O)[C@@H]1CNC(=O)NCc1cc(=O)c(O)cn1O)c1csc(N)n1)C(=O)O` [Example 31, (2S)-2-({[(1Z)-1-(2-amino-1,3-thiazol-4-yl)-2-({(2R,3S)-2-[({[(1,5-dihydroxy-4-oxo-1,4-dihydropyridin-2-yl)methyl]carbamoyl}amino)methyl]-4-oxo-1-sulfoazetidin-3-yl}amino)-2-oxoethylidene]amino}oxy)-4-methylpentanoic acid], the minimal inhibitory concentration (MIC) amounted to 1 µg/mL (≈ 1.51 µM) in experiment [1], 0.5 µg/mL (≈ 0.757 µM) in experiment [2] and 0.5 µg/mL (≈ 0.757 µM) in experiment [3].

As to `CC(C)(O/N=C(\C(=O)N[C@@H]1C(=O)N(S(=O)(=O)O)[C@@H]1CNC(=O)Cc1cccc(NC(=O)c2cc(=O)c(O)cn2O)c1)c1csc(N)n1)C(=O)O` [Example 56, 2-({[(1Z)-1-(2-amino-1,3-thiazol-4-yl)-2-{[(2R,3S)-2-({[(3-{[(1,5-dihydroxy-4-oxo-1,4-dihydropyridin-2-yl)carbonyl]amino}phenyl)acetyl]amino}methyl)-4-oxo-1-sulfoazetidin-3-yl]amino}-2-oxoethylidene]amino}oxy)-2-methylpropanoic acid], the MIC in experiment [1] is 0.5 µg/mL (≈ 0.679 µM); in experiment [2], 1 µg/mL (≈ 1.36 µM); in experiment [3], 1 µg/mL (≈ 1.36 µM).

In the case of `CC(C)(O/N=C(\C(=O)N[C@@H]1C(=O)N(S(=O)(=O)O)[C@@H]1CNS(=O)(=O)c1ccc(C(=O)NCc2cc(=O)c(O)cn2O)cc1)c1csc(N)n1)C(=O)O` [Example 48, 2-({[(1Z)-1-(2-amino-1,3-thiazol-4-yl)-2-{[(2R,3S)-2-({[(4-{[(1,5-dihydroxy-4-oxo-1,4-dihydropyridin-2-yl)methyl]carbamoyl}phenyl)sulfonyl]amino}methyl)-4-oxo-1-sulfoazetidin-3-yl]amino}-2-oxoethylidene]amino}oxy)-2-methylpropanoic acid], the values for the MIC in experiment [1], in experiment [2] and in experiment [3] were 1 µg/mL (≈ 1.29 µM), 1 µg/mL (≈ 1.29 µM) and 2 µg/mL (≈ 2.59 µM), respectively.

For `CC(C)(O/N=C(\C(=O)N[C@@H]1C(=O)N(S(=O)(=O)O)[C@@H]1COC(=O)CNC(=O)c1cc(O)c(O)cn1)c1csc(N)n1)C(=O)O` [Example 6, 2-({[(1Z)-1-(2-amino-1,3-thiazol-4-yl)-2-({(2S,3S)-2-[({N-[(4,5-dihydroxypyridin-2-yl)carbonyl]glycyl}oxy)methyl]-4-oxo-1-sulfoazetidin-3-yl}amino)-2-oxoethylidene]amino}oxy)-2-methylpropanoic acid], the MIC in experiment [2] stood at 8 µg/mL (≈ 12.4 µM); in experiment [3] it was 1 µg/mL (≈ 1.55 µM).
